Converted amounts (≈) assume the structure as drawn. The source made the active and inactive calls. The rule behind the calls is not given here.
Columns and labels:
[1] = Volume of distribution at steady state in Sprague-Dawley rat at 1 mg/kg, iv or 10 mg/kg, po; format: ADME, organism-based; settings: in vivo, read-out: Vdss
[2] = Protein binding in plasma of BALB/c mouse assessed as unbound fraction at […] by ultracentrifugation; format: ADME
[3] = Permeability of compound across apical to basolateral membrane in MDCK2 cells at 10 to 50 uM incubated for 2 hrs under shaking condition by LC-MS/MS analysis; format: ADME, cell-based, Canis lupus familiaris, MDCK-II; settings: dog, MDCK; read-out: permeability
[4] = Protein binding in plasma of Sprague-Dawley rat assessed as unbound fraction at […] by ultracentrifugation; format: ADME, cell-free
[5] = Unbound plasma concentration in athymic nude mouse xenografted with human MIAPaCa2 cells at 10 mg/kg, po qd after 8 hrs post-last dose; format: ADME, organism-based; settings: in vivo
[6] = Intrinsic clearance in mouse cryopreserved hepatocytes assessed per 10^6 cells at 0.5 uM measured upto 60 mins by LCMS analysis; format: ADME, cell-based, Hepatocyte; settings: read-out: CLH
[7] = Volume of distribution at steady state in BALB/c mouse at 1 mg/kg, iv or 10 mg/kg, po; format: ADME, organism-based; settings: in vivo, read-out: Vdss
[8] = tested on: MIA PaCa-2; assay: Antiproliferative activity against human MIAPaCa2 cells harboring KRAS G12C point mutant assessed as cell growth inhibition after 72 hrs by Celltiter-Glo luminescent cell viability assay; format: functional, cell-based; settings: MIA PaCa-2, 72 h
[9] = tested on: MIA PaCa-2; assay: Antitumor activity against human MIAPaCa2 cells harboring KRAS G12C point mutant xenografted in athymic nude mouse assessed as tumor regression at 100 mg/kg, po qd measured after 26 days relative to control; format: functional
[10] = Volume of distribution at steady state in Beagle dog at 1 mg/kg, iv or 10 mg/kg, po; format: ADME, organism-based, Canis lupus familiaris; settings: in vivo, read-out: Vdss
[11] = Solubility of compound in FaSSIF incubated for 48 to 72 hrs under shaking conditions by LCMS analysis; format: physicochemical
[12] = tested on: A549; assay: Antiproliferative activity against human A549 cells harboring KRAS G12S point mutant assessed as cell growth inhibition after 72 hrs by Celltiter-Glo luminescent cell viability assay; format: functional, cell-based; settings: A549, 72 h
[13] = Half life in BALB/c mouse at 1 mg/kg, iv or 10 mg/kg, po; format: ADME, organism-based; settings: in vivo
[14] = tested on: Mus musculus; assay: Decrease in ERK1/ERK2 phosphorylation in human MIAPaCa2 cells xenografted in athymic nude mouse at > 10 mg/kg, po administered as single dose measured after 60 to 120 mins post-treatment; format: functional, organism-based
[15] = Half life in Sprague-Dawley rat at 1 mg/kg, iv or 10 mg/kg, po; format: ADME, organism-based; settings: in vivo
[16] = Solubility of compound in PBS buffer at pH 7.4 incubated for 48 to 72 hrs under shaking conditions by LCMS analysis; format: physicochemical
[17] = Protein binding in plasma of human assessed as unbound fraction at […] by ultracentrifugation; format: ADME, cell-free
[18] = Time taken to achieve Cmax in tumor of athymic nude mouse xenografted with human MIAPaCa2 cells at > 10 mg/kg, po administered as single dose; format: ADME, organism-based, Neoplasm; settings: read-out: tCmax (converted)
[19] = Intrinsic clearance in human cryopreserved hepatocytes assessed per 10^6 cells at 0.5 uM measured upto 60 mins by LCMS analysis; format: ADME, cell-based, Hepatocyte; settings: read-out: CLH
[20] = tested on: MIA PaCa-2; assay: Antitumor activity against human MIAPaCa2 cells harboring KRAS G12C point mutant xenografted in athymic nude mouse assessed as tumor regression at >= 30 mg/kg, po qd measured after 26 days; format: functional, organism-based
[21] = Protein binding in plasma of Beagle dog assessed as unbound fraction at […] by ultracentrifugation; format: ADME, cell-free, Canis lupus familiaris
[22] = Solubility of compound in 0.01N HCl at pH 2 incubated for 48 to 72 hrs under shaking conditions by LCMS analysis; format: physicochemical
[23] = Oral bioavailability in Beagle dog at 10 mg/kg; format: ADME, organism-based, Canis lupus familiaris; settings: in vivo
[24] = Oral bioavailability in BALB/c mouse at 10 mg/kg; format: ADME, organism-based; settings: in vivo
[25] = Time taken to achieve Cmax in plasma of athymic nude mouse xenografted with human MIAPaCa2 cells at > 10 mg/kg, po administered as single dose; format: ADME, organism-based; settings: read-out: tCmax (converted)
[26] = tested on: MIA PaCa-2; assay: Antitumor activity against human MIAPaCa2 cells harboring KRAS G12C point mutant xenografted in athymic nude mouse assessed as tumor growth inhibition at 10 mg/kg, po qd measured after 26 days relative to control; format: functional
[27] = Tmin in plasma of athymic nude mouse xenografted with human MIAPaCa2 cells at > 10 mg/kg, po administered as single dose; format: ADME, organism-based; settings: in vivo
[28] = Clearance in Beagle dog at 1 mg/kg, iv or 10 mg/kg, po; format: ADME, organism-based, Canis lupus familiaris; settings: in vivo
[29] = Half life of compound in aqueous phosphate buffer at pH 7.4 and at 37 degree C in presence of 5 mM GSH; format: physicochemical; settings: aqueous phosphate buffer with 5 mM GSH
[30] = Clearance in Sprague-Dawley rat at 1 mg/kg, iv or 10 mg/kg, po; format: ADME, organism-based; settings: in vivo
[31] = tested on: MIA PaCa-2; assay: Antitumor activity against human MIAPaCa2 cells harboring KRAS G12C point mutant xenografted in athymic nude mouse assessed as tumor regression at 30 mg/kg, po qd measured after 26 days relative to control; format: functional
[32] = Clearance in BALB/c mouse at 1 mg/kg, iv or 10 mg/kg, po; format: ADME, organism-based; settings: in vivo
[33] = Half life in Beagle dog at 1 mg/kg, iv or 10 mg/kg, po; format: ADME, organism-based, Canis lupus familiaris; settings: in vivo
[34] = Oral bioavailability in Sprague-Dawley rat at 10 mg/kg; format: ADME, organism-based; settings: in vivo

**Q.** What does the source list for `C=CC(=O)N1CCN(c2nc(=O)n(-c3c(C)ccnc3C(C)C)c3nc(-c4c(O)cccc4F)c(F)cc23)[C@@H](C)C1` [SOTORASIB]?
**A.** Vd [1]: 2 L/kg; fraction unbound at […] [2]: 0.06; Papp A→B at 2 h, up to 50 µM [3]: 6 ×10⁻⁶ cm/s; fraction unbound at […] [4]: 0.05; Cp(f) [5]: < 1 nM; hepatocyte CLint at 0.5 µM [6]: 36 µL/min/1e6 cells; Vd [7]: 0.7 L/kg; IC50 [8]: 0.005 µM; inhibition (INH) [9]: 62%; Vd [10]: 0.73 L/kg; solubility thermodynamic [11]: 492 µM (≈ 276 µg/mL); IC50 [12]: 36.5 µM; half-life [13]: 30 min; inhibition [14]: Active; half-life [15]: 30 min; solubility thermodynamic [16]: 423 µM (≈ 237 µg/mL); fraction unbound at […] [17]: 0.09; Tmax [18]: 30 min; hepatocyte CLint at 0.5 µM [19]: 9 µL/min/1e6 cells; inhibition [20]: Active; fraction unbound at […] [21]: 0.17; solubility thermodynamic [22]: 499 µM (≈ 280 µg/mL); bioavailability [23]: 0.34%; bioavailability [24]: 22 to 40%; Tmax [25]: 30 min; TGI [26]: 86%; Tmin [27]: 120 min; clearance [28]: 36.7 mL/min/kg; half-life [29]: 200 min; clearance [30]: 56.7 mL/min/kg; inhibition (INH) [31]: 34%; clearance [32]: 26.7 mL/min/kg; half-life [33]: 24 min; bioavailability [34]: 2.8%

Reference: ChEMBL document CHEMBL4354832, “Discovery of a Covalent Inhibitor of KRASG12C (AMG 510) for the Treatment of Solid Tumors” (J Med Chem, 2020)
